From publication PMC11617668, “Developing Allosteric Inhibitors of SARS‐CoV‐2 RNA‐Dependent RNA Polymerase” (Chemmedchem, 2024)
In brackets after ≈: the same amount, converted by molar mass. Where two headings read alike, the source gives them in different places.

Key:
COVID‐19 = settings: cited from earlier work
[1] = biological target: SARS‐CoV‐2 RdRp complex (nsp12, nsp7, nsp8) (Severe acute respiratory syndrome coronavirus 2, UniProt P0DTD1); experiment: Fluorescence-based RdRp polymerase assay (SYBR Green I RNA extension); type: biochemical
[2] = Solubility in water (stated in words); type: physicochemical
in vitro = settings: human
Experimental: (§1) Briefly, two‐fold fold serial dilutions of compounds were added in triplicate in a 384‐well plate with 15,000 Calu‐3 cells in DMEM medium with 2 % FBS, 100 U of penicillin/ml and 100 μg of streptomycin/ml (all Merck). After 1 h incubation SARS‐CoV‐2 was added at multiplicity of infection 0.01. Following three days incubation at 37 °C in 5 % CO2 the cell viability was determined by addition of XTT solution (Sigma‐Aldrich) for 4 h and the absorbance was measured using EnVision plate reader (Perkin Elmer). Drug concentrations required to reduce viral cytopathic effect by 50 % (EC50) were calculated using nonlinear regression from plots of percentage cell viability versus log10 drug concentration using GraphPad Prism v.9.0.0 (GraphPad Software). Cytotoxicity was evaluated by incubating the same two‐fold serial dilutions of each compound with Calu‐3 cells as above but without virus. Following three days of incubation at 37 °C in 5 % CO2, the cell viability was determined by the addition of XTT solution as above. The compound concentrations resulting in a 50 % reduction of absorbance (CC50) were calculated from plots of the percentage of absorbance versus log10 drug concentration as above.

SARS‐CoV‐2 [3] = settings: Severe acute respiratory syndrome coronavirus 2, Calu-3, 72 h
Experimental: as §1

[4] = Kinetic solubility test in enzymatic assay medium; type: physicochemical; settings: aqueous HEPES buffer with 5 % DMSO, pH 8, aqueous with cosolvent or surfactant or cyclodextrin, kinetic from dmso stock
Experimental: Kinetic solubility tests were performed in the medium used for the enzymatic assay–aqueous solution of HEPES buffer with 5 % DMSO. […] This poor aqueous solubility represents a big hurdle in the development of potential antivirals and the improvement of solubility will be considered in further structural optimization efforts of this class of compounds.

SARS‐CoV‐2 [5] = settings: cited from earlier work
[6] = Cytotoxicity in Calu-3 cells without virus (XTT); settings: human, CC50, Calu‐3 cells, no virus, three days
Experimental: as §1

Calu‐3 cells = experiment: Cytotoxicity in Calu-3 cells without virus (XTT); settings: Calu‐3 cells, no virus, three days
Experimental: as §1

[7] = 50 min, read-out: residual activity (RA) of the SARS‐CoV‐2 RdRp complex
[8] = read-out: residual activity (RA) of SARS‐CoV‐2 RdRp

In the case of `CC(C)C(=O)OC[C@H]1O[C@@H](n2ccc(NO)nc2=O)[C@H](O)[C@@H]1O` [Molnupiravir, molnupiravir], the “post‐hospitalization mortality rate” value (COVID‐19; 30‐day‐long study, patients with moderate COVID‐19, placebo 9.7 %) is listed as 6.8%.

In the case of `CC(C)OC(=O)c1cc(NC(=O)Nc2cccc([N+](=O)[O-])c2)cc(C(=O)OC(C)C)c1` [Compound 1], the remaining activity at 10 µM [1, 7] is reported as 57%, the solubility in water [2] is reported as “poorly soluble in water” and the CC50 at 3 days (in vitro) is reported as 23000 nM. The EC50 (SARS‐CoV‐2 [3]) was > 23000 nM.

For `NC(=O)c1nc(F)c[nH]c1=O` [favipiravir], the clinical recovery rate (COVID‐19; open‐label randomized trial in China, COVID‐19 patients) is given as “did not significantly improve”.

Molecule `FC(F)(F)c1ccc2nc(-c3nc4cc(Cl)c(Cl)cc4[nH]3)[nH]c2c1` [Compound 55, 5,6‐Dichloro‐6′‐(Trifluoromethyl)‐1 H ,1′H‐2,2′‐Bibenzo[d]imidazole] has a remaining activity at 10 µM [1, 7] of 42%, a solubility kinetic [4] of 2.9 ± 0.6 µM (≈ 1.08 µg/mL) and a CC50 at 3 days (in vitro) of 2100 nM. For the same molecule, the EC50 (SARS‐CoV‐2 [3]) was > 2100 nM.

In the case of `O=C(Nc1cc(Cl)cc(Cl)c1)Nc1cccc(C(F)(F)F)c1` [Compound 47, 1‐(3,5‐Dichlorophenyl)‐3‐(3‐(Trifluoromethyl)phenyl)urea], the remaining activity at 10 µM [1, 7] is reported as 45%, the solubility kinetic [4] is reported as < 2 µM and the CC50 at 3 days (in vitro) is reported as 490 nM. The EC50 (SARS‐CoV‐2 [3]) was > 490 nM.

For `O=C(Nc1cc(C(F)(F)F)cc(C(F)(F)F)c1)Nc1ccc(Br)cc1-c1nnn[nH]1` [Endovion, endovion, reference compound], the remaining activity at 10 µM [1, 7] is listed as 40%, the solubility in water [2] is listed as “poorly soluble in water” and the “activity in cell assays against the virus” value (SARS‐CoV‐2 [5]) is listed as “active”. The CC50 at 3 days (in vitro) was > 64000 nM and the EC50 (SARS‐CoV‐2 [3]) was > 64000 nM.

`CCC(CC)COC(=O)[C@H](C)N[P@](=O)(OC[C@H]1O[C@@](C#N)(c2ccc3c(N)ncnn23)[C@H](O)[C@@H]1O)Oc1ccccc1` [Remdesivir, remdesivir, reference compound] showed a remaining activity at 10 µM [1, 8] of 62%, a remaining activity at 50 µM [1, 8] of 40% and a remaining activity at 100 µM [1, 8] of 25%. For the same molecule, the “mortality among hospitalized adults” value (COVID‐19; Adaptive COVID Treatment Trial (ACTT), placebo 15.2 %) was 11.4%, the “improvement compared with placebo” value (COVID‐19; Hubei (China) study) was “no statistically significant improvement” and the CC50 at 3 days [6] was > 3200 nM. The CC50 (Calu‐3 cells) was > 5000 nM and the EC50 (SARS‐CoV‐2 [3]) was 110 nM.
